ChEMBL document CHEMBL1201862, “PubChem BioAssay data set” (2004)
The source made the active and inactive calls.

Experiments:
[1] = molecular target: Acyl-homoserine lactone acylase PvdQ (Pseudomonas aeruginosa (strain LESB58), UniProt Q9I194); assay: PvdQ acylase enzyme activity blockers – biochemical, fluorescence, plate reader and imaging, cherry-picks, dose response (AID 493231)
cells [2] = format: functional
Aspartyl aminopeptidase = Aspartyl aminopeptidase (Plasmodium falciparum 3D7, UniProt Q8I2J3)
Procathepsin L = Procathepsin L (Homo sapiens, UniProt P07711)
X-box-binding protein 1 = X-box-binding protein 1 (Homo sapiens, UniProt P17861); format: functional, Cricetulus griseus;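 note: confirmatory dose-response counter-screen serving a CHOP assay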
INS1 = assay: INS-1E survival protection against cytokine death – cell-based, luminescence, retest, dose response (AID 449756); format: functional; settings: Rattus norvegicus;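 note: cell death triggered by IL-1 beta plus TNF-alpha plus IFN-gamma mixture; protective hits raise ATP signal compared with cytokine alone wells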
[3] = viability of uninfected HEp-2 cells – cell-based, HTS, cytotoxicity control for RSV inhibitor project, dose response (AID 2410); format: functional; settings: human respiratory syncytial virus
[4] = viability of PTEN-deleted HCT116 cells – cell-based, HCT116 PTEN knockout, dose response (AID 1047); format: functional;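 note: HCT116 colon tumor cells with PTEN knocked out; cells exposed to compound for 60 hours before readout; potency for loss of cell viability measured by luminescence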
[5] = viability of HCT116 lacking mutant beta-catenin – cell-based, human colon tumor, dose response (AID 1045); format: functional;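 note: HCT116 colon tumor cells with beta catenin knocked out; cells exposed to compound for 60 hours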
cells [6] = assay: cells
[7] = antiviral protection against BTV-induced cell death – arbovirus, BSR cells, confirmation (AID 1250); format: functional;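 note: protection from viral cytopathic effect measured as cell viability by ATP luminescence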
Estrogen receptor = molecular target: T1, Estrogen receptor (Homo sapiens, UniProt P03372);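 note: potency for inhibiting coactivator peptide recruitment to the receptor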
T1 sequence (P03372 whole entry): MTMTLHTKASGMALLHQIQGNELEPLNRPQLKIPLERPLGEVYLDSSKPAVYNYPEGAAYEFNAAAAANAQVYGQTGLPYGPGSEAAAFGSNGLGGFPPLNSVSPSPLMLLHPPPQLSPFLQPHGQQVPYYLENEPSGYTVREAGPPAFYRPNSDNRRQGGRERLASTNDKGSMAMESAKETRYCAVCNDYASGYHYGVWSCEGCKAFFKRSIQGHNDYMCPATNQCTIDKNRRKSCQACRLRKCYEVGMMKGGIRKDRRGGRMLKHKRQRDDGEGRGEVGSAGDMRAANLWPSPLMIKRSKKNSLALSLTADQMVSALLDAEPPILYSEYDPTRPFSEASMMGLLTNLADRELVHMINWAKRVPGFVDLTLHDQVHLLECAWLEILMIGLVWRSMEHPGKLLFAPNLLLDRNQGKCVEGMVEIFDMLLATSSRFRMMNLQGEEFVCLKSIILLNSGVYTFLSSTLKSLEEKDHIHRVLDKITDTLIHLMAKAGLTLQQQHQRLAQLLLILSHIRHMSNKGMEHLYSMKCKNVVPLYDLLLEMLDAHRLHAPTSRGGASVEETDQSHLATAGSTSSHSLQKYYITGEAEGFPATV

[8] = molecular target: T2, RNA-binding protein pos-1 (Caenorhabditis elegans, UniProt G5EF15); assay: disruptors of C. elegans POS-1 RNA interaction – biochemical, fluorescence polarization, dose response (AID 1964);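 note: purified POS-1 fused to maltose binding protein made in E. coli; potency of compounds blocking POS-1 binding to fluorescent RNA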
T2 sequence (G5EF15 whole entry): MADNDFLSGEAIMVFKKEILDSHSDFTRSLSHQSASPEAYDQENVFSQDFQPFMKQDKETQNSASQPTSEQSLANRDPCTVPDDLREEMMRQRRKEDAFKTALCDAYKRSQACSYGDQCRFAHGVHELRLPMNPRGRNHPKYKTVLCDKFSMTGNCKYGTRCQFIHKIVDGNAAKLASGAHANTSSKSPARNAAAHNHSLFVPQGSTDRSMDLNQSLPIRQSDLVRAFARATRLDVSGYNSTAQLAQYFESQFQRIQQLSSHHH

Estrogen receptor beta [9] = molecular target: T3, Estrogen receptor beta (Homo sapiens, UniProt Q92731); assay: blockers of SRC-3 recruitment to ERβ – biochemical, ELISA, streptavidin-HRP readout, orthogonal assay, confirmation (AID 1060)
[10] = molecular target: Induced myeloid leukemia cell differentiation protein Mcl-1 (Homo sapiens, UniProt Q07820); format: functional
[11] = molecular target: T4, Tyrosine-protein phosphatase non-receptor type 7 (Homo sapiens, UniProt P35236); assay: redox-active compounds inhibiting HePTP phosphatase – biochemical, fluorescence, mechanism study (AID 2068); format: functional
T4 sequence (P35236 whole entry): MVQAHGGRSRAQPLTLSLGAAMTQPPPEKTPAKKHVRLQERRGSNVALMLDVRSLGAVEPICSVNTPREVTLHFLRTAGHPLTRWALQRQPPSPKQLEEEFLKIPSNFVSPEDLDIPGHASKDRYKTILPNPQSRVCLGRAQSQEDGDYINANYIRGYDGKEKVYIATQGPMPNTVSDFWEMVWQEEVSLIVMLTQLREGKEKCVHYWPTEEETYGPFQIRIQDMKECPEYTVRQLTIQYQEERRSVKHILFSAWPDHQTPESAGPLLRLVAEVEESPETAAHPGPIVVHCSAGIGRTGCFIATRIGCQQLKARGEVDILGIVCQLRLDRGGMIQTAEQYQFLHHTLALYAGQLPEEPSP

Genome polyprotein = Genome polyprotein (dengue virus type 2, UniProt P29990); assay: flavivirus cap methylation enzyme inhibition – biochemical, confirmation dose response, primary screen (AID 588689); format: functional
Coagulation factor XII = molecular target: T5, Coagulation factor XII (Homo sapiens, UniProt P00748); format: functional;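 note: activated factor XIIa alpha cleaving a fluorogenic AMC peptide substrate; inhibitor potency from loss of enzyme activity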
T5 sequence (P00748 whole entry): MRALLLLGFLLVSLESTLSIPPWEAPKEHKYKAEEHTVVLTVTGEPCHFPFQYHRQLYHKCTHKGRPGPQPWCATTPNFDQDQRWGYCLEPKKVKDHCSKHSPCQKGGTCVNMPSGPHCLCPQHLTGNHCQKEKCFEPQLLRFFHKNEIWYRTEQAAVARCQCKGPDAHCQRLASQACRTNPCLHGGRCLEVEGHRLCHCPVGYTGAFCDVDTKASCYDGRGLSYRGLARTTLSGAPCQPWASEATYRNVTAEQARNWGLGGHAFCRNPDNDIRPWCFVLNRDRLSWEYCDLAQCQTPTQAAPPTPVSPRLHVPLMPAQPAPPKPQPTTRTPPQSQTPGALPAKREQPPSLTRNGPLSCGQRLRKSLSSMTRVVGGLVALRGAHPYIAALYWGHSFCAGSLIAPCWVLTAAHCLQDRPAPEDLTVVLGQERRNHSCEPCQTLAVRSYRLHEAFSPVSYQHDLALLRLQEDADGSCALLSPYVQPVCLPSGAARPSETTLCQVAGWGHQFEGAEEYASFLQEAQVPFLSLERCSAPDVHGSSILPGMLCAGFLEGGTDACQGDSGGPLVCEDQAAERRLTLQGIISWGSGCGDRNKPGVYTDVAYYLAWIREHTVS

[12] = molecular target: T6, Zinc finger protein mex-5 (Caenorhabditis elegans, UniProt Q9XUB2); assay: potency of MEX-5 RNA-binding blockers – biochemical, C. elegans, fluorescence polarization, dose response (AID 1960)
T6 sequence (Q9XUB2 whole entry): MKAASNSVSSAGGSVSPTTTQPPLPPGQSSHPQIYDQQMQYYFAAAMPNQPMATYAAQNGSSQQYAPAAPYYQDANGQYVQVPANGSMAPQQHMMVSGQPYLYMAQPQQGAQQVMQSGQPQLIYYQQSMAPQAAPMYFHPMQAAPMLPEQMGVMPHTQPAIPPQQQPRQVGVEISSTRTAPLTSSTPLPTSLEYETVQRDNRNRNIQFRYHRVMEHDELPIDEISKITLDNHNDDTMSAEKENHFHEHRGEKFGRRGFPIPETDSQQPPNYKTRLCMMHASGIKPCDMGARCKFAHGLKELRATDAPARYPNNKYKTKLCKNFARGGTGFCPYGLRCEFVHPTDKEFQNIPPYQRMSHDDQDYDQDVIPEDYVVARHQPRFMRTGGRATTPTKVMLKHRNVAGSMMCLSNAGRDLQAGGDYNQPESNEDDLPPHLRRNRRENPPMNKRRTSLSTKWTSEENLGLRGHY

[13] = molecular target: Nucleotide-binding oligomerization domain-containing protein 2 (Homo sapiens, UniProt Q9HC29); assay: PubChem AID 2334; format: functional
HEK293 = assay: cells; settings: Homo sapiens;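 note: cells exposed to compound for 14 hours overnight before viability readout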
Tumor necrosis factor = Tumor necrosis factor (Homo sapiens, UniProt P01375); assay: analog potency on TNFa NF-kB signaling – cell-based, revised, SAR follow-up (AID 2337); format: functional
[14] = molecular target: T7, Nucleotide-binding oligomerization domain-containing protein 1 (Homo sapiens, UniProt Q9Y239); assay: blockers of NOD1 pathway activity – revised, SAR follow-up (AID 2333); format: functional
T7 sequence (Q9Y239 whole entry): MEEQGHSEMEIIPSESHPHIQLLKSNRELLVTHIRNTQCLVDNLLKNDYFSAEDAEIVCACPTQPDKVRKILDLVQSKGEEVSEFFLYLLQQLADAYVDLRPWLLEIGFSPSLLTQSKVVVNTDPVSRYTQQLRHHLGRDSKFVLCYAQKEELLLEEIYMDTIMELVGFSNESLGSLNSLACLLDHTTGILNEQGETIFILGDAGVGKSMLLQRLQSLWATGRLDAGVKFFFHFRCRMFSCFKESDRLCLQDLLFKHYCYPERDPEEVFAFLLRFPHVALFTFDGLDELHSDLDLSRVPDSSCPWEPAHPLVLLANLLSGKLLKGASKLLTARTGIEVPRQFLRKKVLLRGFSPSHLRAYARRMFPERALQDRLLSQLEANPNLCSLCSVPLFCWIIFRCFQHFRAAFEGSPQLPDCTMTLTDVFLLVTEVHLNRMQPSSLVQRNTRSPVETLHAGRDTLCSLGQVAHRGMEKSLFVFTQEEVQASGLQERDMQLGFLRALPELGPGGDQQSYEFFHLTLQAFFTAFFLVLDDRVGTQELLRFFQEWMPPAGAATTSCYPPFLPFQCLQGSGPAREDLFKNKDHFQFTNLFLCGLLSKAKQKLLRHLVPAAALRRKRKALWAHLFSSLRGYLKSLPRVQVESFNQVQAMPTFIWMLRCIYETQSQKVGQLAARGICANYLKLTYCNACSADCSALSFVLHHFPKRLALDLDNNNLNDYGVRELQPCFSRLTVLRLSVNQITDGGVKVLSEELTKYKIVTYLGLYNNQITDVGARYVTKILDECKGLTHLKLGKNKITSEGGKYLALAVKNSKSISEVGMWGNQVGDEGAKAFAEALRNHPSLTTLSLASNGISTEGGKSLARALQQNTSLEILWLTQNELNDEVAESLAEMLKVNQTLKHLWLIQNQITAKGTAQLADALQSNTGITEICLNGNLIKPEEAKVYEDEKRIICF

Protein Tat = Protein Tat (Human immunodeficiency virus type 1 group M subtype B (isolate HXB2)(HIV-1), UniProt P04608); format: functional;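 note: tat binding to TAR RNA read out by fluorescence polarization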
Ephrin type-A receptor 4 = Ephrin type-A receptor 4 (Mus musculus, UniProt Q03137); assay: EphA4 ligand-binding antagonists – biochemical, colorimetric, mouse EphA4, primary screen (AID 689); format: functional
[15] = viability loss in THP-1 monocytes – THP-1 cells, cytotoxicity control for Vif-APOBEC3G degradation inhibitor project, dose response (AID 1117359); format: functional; settings: THP-1
Estrogen receptor beta [16] = molecular target: T3, Estrogen receptor beta

Nucleotide-binding oligomerization domain-containing protein 2, sequence (Q9HC29 whole entry, the tested form may be a part): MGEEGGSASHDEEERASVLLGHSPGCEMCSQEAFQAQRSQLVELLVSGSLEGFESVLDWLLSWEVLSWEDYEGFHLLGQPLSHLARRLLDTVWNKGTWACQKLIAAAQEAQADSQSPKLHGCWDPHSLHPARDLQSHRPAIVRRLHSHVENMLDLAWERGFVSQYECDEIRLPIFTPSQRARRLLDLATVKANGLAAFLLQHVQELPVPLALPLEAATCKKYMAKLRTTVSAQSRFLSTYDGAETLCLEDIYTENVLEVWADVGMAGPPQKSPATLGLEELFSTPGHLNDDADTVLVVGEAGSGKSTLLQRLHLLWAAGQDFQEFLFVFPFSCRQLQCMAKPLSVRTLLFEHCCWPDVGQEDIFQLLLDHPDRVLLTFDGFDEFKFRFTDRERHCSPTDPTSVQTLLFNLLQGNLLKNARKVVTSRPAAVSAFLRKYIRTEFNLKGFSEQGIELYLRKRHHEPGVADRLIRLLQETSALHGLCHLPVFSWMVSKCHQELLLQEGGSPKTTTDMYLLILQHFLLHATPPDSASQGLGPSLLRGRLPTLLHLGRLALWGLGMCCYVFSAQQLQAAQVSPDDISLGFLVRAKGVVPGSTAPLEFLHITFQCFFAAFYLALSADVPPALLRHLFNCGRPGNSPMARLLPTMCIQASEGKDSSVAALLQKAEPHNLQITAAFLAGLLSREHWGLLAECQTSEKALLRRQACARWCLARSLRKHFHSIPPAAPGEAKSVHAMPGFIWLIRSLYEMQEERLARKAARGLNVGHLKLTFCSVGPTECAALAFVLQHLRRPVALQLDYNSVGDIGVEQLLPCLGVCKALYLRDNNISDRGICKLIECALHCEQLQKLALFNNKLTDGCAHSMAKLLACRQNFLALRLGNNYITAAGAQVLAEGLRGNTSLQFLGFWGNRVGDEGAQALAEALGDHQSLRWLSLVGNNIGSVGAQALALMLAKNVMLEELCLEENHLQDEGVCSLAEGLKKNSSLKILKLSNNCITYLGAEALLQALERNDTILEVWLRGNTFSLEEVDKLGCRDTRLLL
Tumor necrosis factor, sequence (P01375 whole entry, the tested form may be a part): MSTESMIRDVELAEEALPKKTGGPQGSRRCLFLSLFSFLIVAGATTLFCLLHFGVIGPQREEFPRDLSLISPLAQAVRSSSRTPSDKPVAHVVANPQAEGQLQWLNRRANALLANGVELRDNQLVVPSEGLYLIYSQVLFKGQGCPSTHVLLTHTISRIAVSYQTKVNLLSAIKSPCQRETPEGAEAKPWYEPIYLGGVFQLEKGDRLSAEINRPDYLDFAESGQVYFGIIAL
T3 sequence (Q92731 whole entry): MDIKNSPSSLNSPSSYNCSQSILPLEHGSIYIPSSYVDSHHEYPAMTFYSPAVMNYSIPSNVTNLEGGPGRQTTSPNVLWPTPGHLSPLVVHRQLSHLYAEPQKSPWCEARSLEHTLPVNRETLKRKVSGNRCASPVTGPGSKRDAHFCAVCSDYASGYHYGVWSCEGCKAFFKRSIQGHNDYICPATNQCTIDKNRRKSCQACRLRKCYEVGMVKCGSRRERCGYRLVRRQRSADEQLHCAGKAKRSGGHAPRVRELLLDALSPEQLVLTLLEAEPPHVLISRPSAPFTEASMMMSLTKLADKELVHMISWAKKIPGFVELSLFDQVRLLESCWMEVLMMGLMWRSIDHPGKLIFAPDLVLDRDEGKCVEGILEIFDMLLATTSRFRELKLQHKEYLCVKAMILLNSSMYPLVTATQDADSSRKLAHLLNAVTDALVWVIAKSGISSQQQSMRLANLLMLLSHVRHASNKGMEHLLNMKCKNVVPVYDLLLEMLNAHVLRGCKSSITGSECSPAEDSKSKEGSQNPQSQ
Acyl-homoserine lactone acylase PvdQ, sequence (Q9I194 24-193 limits assumed): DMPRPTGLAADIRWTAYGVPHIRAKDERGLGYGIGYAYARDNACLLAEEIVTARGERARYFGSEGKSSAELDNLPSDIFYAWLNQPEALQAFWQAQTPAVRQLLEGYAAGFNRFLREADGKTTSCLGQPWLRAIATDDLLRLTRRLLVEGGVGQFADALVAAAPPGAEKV
Acyl-homoserine lactone acylase PvdQ, sequence (Q9I194 217-762 limits assumed): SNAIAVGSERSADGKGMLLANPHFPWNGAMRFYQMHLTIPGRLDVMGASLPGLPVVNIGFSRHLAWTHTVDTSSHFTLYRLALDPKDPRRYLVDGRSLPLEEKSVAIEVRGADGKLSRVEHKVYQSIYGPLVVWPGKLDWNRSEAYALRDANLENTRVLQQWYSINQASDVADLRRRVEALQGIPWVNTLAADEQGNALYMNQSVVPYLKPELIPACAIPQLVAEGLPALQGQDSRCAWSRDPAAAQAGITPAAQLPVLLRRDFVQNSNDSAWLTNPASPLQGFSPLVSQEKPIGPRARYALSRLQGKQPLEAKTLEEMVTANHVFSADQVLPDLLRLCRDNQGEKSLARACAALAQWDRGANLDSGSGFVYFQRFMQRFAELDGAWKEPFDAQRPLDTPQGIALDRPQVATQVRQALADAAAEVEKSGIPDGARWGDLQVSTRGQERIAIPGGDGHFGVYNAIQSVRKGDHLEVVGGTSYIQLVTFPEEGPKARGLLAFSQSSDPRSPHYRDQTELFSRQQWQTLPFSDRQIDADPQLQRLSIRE
X-box-binding protein 1, sequence (P17861 whole entry): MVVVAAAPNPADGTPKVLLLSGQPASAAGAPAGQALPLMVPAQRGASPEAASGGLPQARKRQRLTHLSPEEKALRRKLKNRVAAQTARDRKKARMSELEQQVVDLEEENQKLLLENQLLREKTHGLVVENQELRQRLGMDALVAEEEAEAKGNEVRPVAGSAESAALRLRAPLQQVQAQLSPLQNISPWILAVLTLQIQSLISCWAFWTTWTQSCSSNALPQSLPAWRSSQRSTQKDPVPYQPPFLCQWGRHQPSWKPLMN
Aspartyl aminopeptidase, sequence (Q8I2J3 whole entry): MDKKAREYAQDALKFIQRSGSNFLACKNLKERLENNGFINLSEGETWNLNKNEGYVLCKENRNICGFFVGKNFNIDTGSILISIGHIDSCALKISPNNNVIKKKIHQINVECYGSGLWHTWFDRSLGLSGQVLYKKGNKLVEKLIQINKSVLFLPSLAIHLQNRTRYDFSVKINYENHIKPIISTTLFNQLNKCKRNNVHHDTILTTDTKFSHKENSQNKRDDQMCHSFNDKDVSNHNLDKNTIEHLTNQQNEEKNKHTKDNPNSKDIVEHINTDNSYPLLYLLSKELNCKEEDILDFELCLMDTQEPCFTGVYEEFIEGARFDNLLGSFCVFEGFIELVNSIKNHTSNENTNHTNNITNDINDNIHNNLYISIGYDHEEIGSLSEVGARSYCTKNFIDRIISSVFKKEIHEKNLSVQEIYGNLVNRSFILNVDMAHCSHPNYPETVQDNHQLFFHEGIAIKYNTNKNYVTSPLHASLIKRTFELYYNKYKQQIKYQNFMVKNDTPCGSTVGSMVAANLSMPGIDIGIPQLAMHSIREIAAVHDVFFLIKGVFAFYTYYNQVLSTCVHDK
Induced myeloid leukemia cell differentiation protein Mcl-1, sequence (Q07820 whole entry): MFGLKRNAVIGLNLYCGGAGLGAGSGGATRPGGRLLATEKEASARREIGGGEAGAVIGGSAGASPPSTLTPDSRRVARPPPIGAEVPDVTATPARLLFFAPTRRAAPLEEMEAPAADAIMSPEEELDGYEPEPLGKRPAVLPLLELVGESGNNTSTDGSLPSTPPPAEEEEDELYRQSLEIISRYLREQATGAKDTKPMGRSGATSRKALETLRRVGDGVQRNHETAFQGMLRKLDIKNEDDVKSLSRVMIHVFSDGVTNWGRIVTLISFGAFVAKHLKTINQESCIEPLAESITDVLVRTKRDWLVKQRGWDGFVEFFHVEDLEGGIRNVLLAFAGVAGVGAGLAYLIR
Procathepsin L, sequence (P07711 whole entry): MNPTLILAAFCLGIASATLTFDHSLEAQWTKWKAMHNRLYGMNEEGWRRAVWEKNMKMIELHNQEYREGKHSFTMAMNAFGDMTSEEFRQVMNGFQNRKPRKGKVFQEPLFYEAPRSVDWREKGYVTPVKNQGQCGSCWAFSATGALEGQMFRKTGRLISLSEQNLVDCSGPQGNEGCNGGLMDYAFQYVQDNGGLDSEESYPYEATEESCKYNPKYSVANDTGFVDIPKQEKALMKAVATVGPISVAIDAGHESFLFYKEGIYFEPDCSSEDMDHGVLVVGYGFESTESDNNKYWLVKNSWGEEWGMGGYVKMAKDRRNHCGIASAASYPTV
Protein Tat, sequence (P04608 whole entry): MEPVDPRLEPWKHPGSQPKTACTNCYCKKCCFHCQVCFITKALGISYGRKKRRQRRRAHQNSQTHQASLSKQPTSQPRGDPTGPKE

SMILES: O=C(OCc1ccc(Cl)c(Cl)c1)c1ccccn1
- AC50 [1]: 29.3 µM (active)
- IC50 (cells [2]): 16.9 µM (active)

SMILES: O=C(Nc1cccc(C(F)(F)F)c1)Nn1cnnc1
- IC50 (Aspartyl aminopeptidase): 2.32 µM (active)
- IC50 (Procathepsin L): > 59.6 µM (not active)

SMILES: CCCCCc1c(C)nc(Nc2ccccc2)nc1O
- Absolute IC50 (XBP1) (X-box-binding protein 1): 10 µM

SMILES: CCOC1=CC(=O)OC(c2ccccc2)C1 (centres undefined)
- AC50 [1]: 3.54 µM (active)

SMILES: CCC1(c2ccc(F)cc2)NC(=O)N(CC(=O)Nc2ccc(-c3nc4ccc(C)cc4s3)cc2)C1=O (centres undefined)
- AC50 (INS1): 8.98 µM (active)
- Absolute IC50 (XBP1) (X-box-binding protein 1): 10 µM
- CC50 [3]: 15.5 µM (active)
- EC50 [4]: 7.37 µM (active)
- EC50 [5]: 12.3 µM (active)

SMILES: CC(C)C[C@H](NC(=O)c1[nH]cnc1C(=O)N1CCN(C(=O)OC(C)(C)C)CC1)C(=O)OC(C)(C)C
- CC50 [3]: 13.3 µM (active)
- IC50 (cells [6]): 1.43 µM (active)
- IC50 [7]: 34.8 µM (active)

SMILES: Cc1onc(-c2c(F)cccc2Cl)c1C(=O)OCC(=O)NCc1ccco1
- IC50 (Estrogen receptor): 38.6 µM (not active)

SMILES: O=C(Nc1ccc(Cl)c(Cl)c1)Nn1cnnc1
- IC50 (Aspartyl aminopeptidase): 0.837 µM (active)
- IC50 (Procathepsin L): > 59.6 µM (not active)

SMILES: c1coc(-c2nc3ccccc3nc2-c2ccco2)c1
- EC50 [8]: 21.6 µM (active)
- IC50 (Estrogen receptor beta [9]): < 0.023 µM (not active)
- IC50 [10]: < 400 nM (active)
- IC50 [11]: 12.4 µM (active)
- IC50 (Genome polyprotein): > 100 µM (active)
- IC50 (Coagulation factor XII): > 50 µM (inactive)
- EC50 [12]: 12 µM (active)

SMILES: Nc1nc2ccccc2n1C(=O)Cc1ccccc1
- IC50 [13]: > 20 µM (inactive)
- IC50 (HEK293): > 20 µM (inactive)
- IC50 (Tumor necrosis factor): > 20 µM (inactive)
- IC50 [14]: > 20 µM (inactive)

SMILES: CCCSC1=N/C(=C\C=C\c2ccco2)C(=O)S1
- IC50 (Protein Tat): 3.05 µM (inconclusive)
- IC50 (Estrogen receptor beta [9]): > 50 µM (not active)
- IC50 (Ephrin type-A receptor 4): 11.9 µM (active)
- IC50 [10]: 3970 nM (active)
- CC50 [15]: > 40 µM (active)
- IC50 (Estrogen receptor beta [16]): 9.71 µM (active)

SMILES: Cn1c(SCC(=O)Nc2sccc2C#N)nnc1-c1ccccc1
- IC50 (Estrogen receptor): 17.1 µM (active)

SMILES: COc1ccc(C(=O)Nc2nc3ccccc3n2Cc2ccc(Cl)cc2)cc1
- IC50 [13]: > 20 µM (inactive)
- IC50 (HEK293): > 20 µM (inactive)
- IC50 (Tumor necrosis factor): > 20 µM (inactive)
- IC50 [14]: > 20 µM (inactive)
